Source: US7745462B2, “Quinoline-2-one derivatives for the treatment of airways diseases” (Novartis AG, priority 2003, dated 2010)
Like-named read-outs stand apart in the source and are kept apart here.

How the values were obtained:
β2-adrenoreceptor = β2-adrenoreceptor (Homo sapiens, UniProt P07550); assay: β2-adrenoreceptor binding potency, classical filtration binding assay
From the text: (§1) The β2 agonist activity, onset of action and duration of action of the agents of the invention may be tested using the guinea pig tracheal strip in vitro assay according to the procedure of R. A. Coleman and A. T. Nials, J. Pharmacol. Methods 1989, 21, 71.

β1-adrenoreceptor = β1-adrenoreceptor (Homo sapiens, UniProt P08588); assay: β1-adrenoreceptor binding potency, classical filtration binding assay
From the text: as §1

[1] = read-out: Ki (β2) binding potency, classical filtration binding assay, first value of β2/β1 pair
[2] = read-out: Ki (β1) binding potency, classical filtration binding assay, second value of β2/β1 pair

β1-adrenoreceptor, sequence (P08588 whole entry, species assumed): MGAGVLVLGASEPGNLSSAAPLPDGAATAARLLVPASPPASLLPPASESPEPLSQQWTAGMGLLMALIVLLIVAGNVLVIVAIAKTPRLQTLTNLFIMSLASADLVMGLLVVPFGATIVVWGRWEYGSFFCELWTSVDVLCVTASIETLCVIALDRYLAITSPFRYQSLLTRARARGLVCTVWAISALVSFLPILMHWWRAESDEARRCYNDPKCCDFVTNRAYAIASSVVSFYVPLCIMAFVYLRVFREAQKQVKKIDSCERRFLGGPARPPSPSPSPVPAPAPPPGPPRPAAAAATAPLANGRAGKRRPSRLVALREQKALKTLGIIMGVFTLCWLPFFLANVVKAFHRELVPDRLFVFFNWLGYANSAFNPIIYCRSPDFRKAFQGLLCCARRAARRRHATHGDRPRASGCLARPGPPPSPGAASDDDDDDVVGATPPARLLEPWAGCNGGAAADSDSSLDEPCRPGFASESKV

Row | Ki (β2-adrenoreceptor) | Ki (β1-adrenoreceptor) | Compound | Ki (β2-adrenoreceptor; [1]) | Ki (β1-adrenoreceptor; [2])
1 | 48 nM | 491 nM | O=c1ccc2c(C(O)CNC3CCCC3C3CCCCC3)ccc(O)c2[nH]1 (mixture of isomers) [Example 33, 5-[R-2-(1S,2S-2-Cyclohexylcyclopentylamino)-1-hydroxyethyl]-8-hydroxy-1H-quinolin-2-one and 5-[R-2-(1R,2R-2-cyclohexylcyclopentylamino)-1-hydroxyethyl]-8-hydroxy-1H-quinolin-2-one] |  | 
2 | 77 nM | 132 nM | CCC1=C(CC)CC2=C(C1)CC(NC[C@H](O)c1ccc(O)c3[nH]c(=O)ccc13)C2 [Example 30, 5-[R-2-(5,6-Diethyl-2,3,4,7-tetrahydro-1H-inden-2-ylamino)-1-hydroxyethyl]-8-hydroxy-1H-quinolin-2-one] |  | 
3 | 128 nM | 384 nM | COCC1(NC[C@H](O)c2ccc(O)c3[nH]c(=O)ccc23)Cc2ccccc2C1 [Example 55, 8-Hydroxy-5-[R-1-hydroxy-2-(2-methoxymethylindan-2-ylamino)-ethyl]-1H-quinolin-2-one] |  | 
4 | 3 nM | 4 nM | O=c1ccc2c([C@@H](O)CN[C@H]3Cc4ccc(-c5ccco5)cc4C3)ccc(O)c2[nH]1 [Example 139, 5-[R-2-(S-5-(Furan-2-yl)indan-2-ylamino)-1-hydroxyethyl]-8-hydroxy-1H-quinohnl-2-one] |  | 

Continued, compound first:

Row | Compound | Ki (β2-adrenoreceptor) | Ki (β1-adrenoreceptor) | Ki (β2-adrenoreceptor; [1]) | Ki (β1-adrenoreceptor; [2])
5 | 5-[R-2-(1R,2R-2-Benzylcyclopentylamino)-1-hydroxyethyl]-8-hydroxy-1H-quinolin-2-one [Example 35] |  |  | 0.4 nM | 6 nM
6 | 5-[R-2-((3aS,5R,6aR)-2-Butyloctahydrocyclopenta[c]pyrrol-5-ylamino)-1-hydroxyethyl]-8-hydroxy-1H-quinolin-2-one and 5-[R-2-((3aS,5S,6aR)-2-butyloctahydrocyclopenta[c]pyrrol-5-ylamino)-1-hydroxyethyl]-8-hydroxy-1H-quinolin-2-one [Example 85] |  |  | 121 nM | 380 nM
7 | CCCCc1ccc2c(c1)CCC2NC[C@H](O)c1ccc(O)c2[nH]c(=O)ccc12 (mixture of isomers) [Example 3, 5-[R-2-(RS-5-butylindan-1-ylamino)-1-hydroxyethyl]-8-hydroxy-1H-quinolin-2-one] | 54 nM | 50 nM |  | 
8 | CC1c2ccccc2CC1NCC(O)c1ccc(O)c2[nH]c(=O)ccc12 (mixture of isomers) [Example 4, 8-Hydroxy-5-[R-1-hydroxy-2-(1R,2S-1-methylindan-2-ylamino)ethyl]-1H-quinolin-2-one and 8-hydroxy-5-[R-1-hydroxy-2-(1S,2R-1-methylindan-2-ylamino)ethyl]-1H-quinolin-2-one] | 6 nM | 115 nM |  | 
9 | O=c1ccc2c([C@@H](O)CN[C@@H]3CCc4ccccc43)ccc(O)c2[nH]1 [Example 1, 8-Hydroxy-5-[R-1-hydroxy-2-(R-indan-1-ylamino)ethyl]-1H-quinolin-2-one] | 26 nM | 186 nM |  | 
